# Measured values: US8609650B2, “Bridged bicyclic aryl and bridged bicyclic heteroaryl substituted triazoles useful as Axl inhibitors” (Rigel Pharmaceuticals, Inc., priority 2006, dated 2013)
# Biological target: T1, Axl (Homo sapiens, UniProt P30530)
# T1 construct: endogenous in cells; host or cells: HeLa cells
# T1 sequence (P30530 26-894): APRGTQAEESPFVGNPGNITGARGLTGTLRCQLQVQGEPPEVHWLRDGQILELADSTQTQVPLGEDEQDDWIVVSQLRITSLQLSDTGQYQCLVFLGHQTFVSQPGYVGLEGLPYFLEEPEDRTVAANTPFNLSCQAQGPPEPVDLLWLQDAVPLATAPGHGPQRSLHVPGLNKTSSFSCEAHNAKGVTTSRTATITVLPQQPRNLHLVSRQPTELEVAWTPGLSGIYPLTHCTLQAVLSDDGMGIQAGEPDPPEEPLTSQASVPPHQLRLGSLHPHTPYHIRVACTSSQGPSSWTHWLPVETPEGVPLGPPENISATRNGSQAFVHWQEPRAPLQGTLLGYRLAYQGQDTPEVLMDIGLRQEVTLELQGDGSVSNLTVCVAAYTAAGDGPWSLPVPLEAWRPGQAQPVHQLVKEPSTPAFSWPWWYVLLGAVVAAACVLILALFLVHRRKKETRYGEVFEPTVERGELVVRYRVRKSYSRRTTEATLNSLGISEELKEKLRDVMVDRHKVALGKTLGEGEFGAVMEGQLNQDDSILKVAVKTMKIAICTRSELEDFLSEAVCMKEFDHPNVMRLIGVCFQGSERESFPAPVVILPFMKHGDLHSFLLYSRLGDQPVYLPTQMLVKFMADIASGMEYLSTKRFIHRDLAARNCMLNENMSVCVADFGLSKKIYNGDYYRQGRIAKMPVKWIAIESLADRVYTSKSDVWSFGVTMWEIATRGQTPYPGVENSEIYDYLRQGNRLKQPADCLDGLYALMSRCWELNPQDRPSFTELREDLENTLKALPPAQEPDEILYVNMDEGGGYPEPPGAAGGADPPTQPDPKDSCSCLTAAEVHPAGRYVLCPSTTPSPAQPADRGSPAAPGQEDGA
# Test: Phospho-Akt In-Cell Western Assay (ability to inhibit Axl activity)
# Assay type: cell-based
# Conditions: Hela cells, stimulated by Axl-antibody cross-linking, phospho-Akt chemiluminescence normalized to relative cell number
# Method in brief: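 HeLa cells starved 24 h in 0.5% FCS with Axl/Fc 500 ng/mL, pre-treated 1 h at 37° C with compound, then stimulated 5 min by anti-Axl antibody cross-linking. Fixed cells probed for phospho-Akt with HRP secondary; chemiluminescence read.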
row,IC50,SMILES
1,1000 to 10000 nM,"Cc1cc(Nc2nc(N)n(-c3cc(-c4ccccc4)c4c(n3)C3CCC4C3)n2)cnc1N1CCN(CC2CC2)CC1 (stereo not drawn) [Compound 51, 1-(5,8-methano-4-phenyl-5,6,7,8-tetrahydroquinoline-2-yl)-N^3-(3-methyl-2-(4-cyclopropylmethylpiperazin-1-yl)pyridine-5-yl)-1H-1,2,4-triazole-3,5-diamine]"
2,< 1000 nM,"Nc1nc(Nc2ccc3c(c2)CCC(N2CCCC2)CC3)nn1-c1cc(-c2ccccc2)c2c(n1)C1CCN2CC1 (stereo not drawn) [Compound 72, 1-(1,4-ethano-8-phenyl-1,2,3,4-tetrahydro-1,5-naphthyridin-6-yl)-N^3-(7-pyrrolidin-1-yl-6,7,8,9-tetrahydro-5H-benzo[7]annulene-3-yl)-1H-1,2,4-triazole-3,5-diamine]"
3,< 1000 nM,"Nc1nc(Nc2ccc3c(c2)CCC(N2CCCC2)CC3)nn1-c1cc(-c2ccccc2)c2c(n1)C1CCC2C1 (stereo not drawn) [Compound 49, 1-(5,8-methano-4-phenyl-5,6,7,8-tetrahydroquinoline-2-yl)-N^3-(7-pyrrolidin-1-yl-6,7,8,9-tetrahydro-5H-benzo[7]annulene-3-yl)-1H-1,2,4-triazole-3,5-diamine]"
4,< 1000 nM,"Cc1csc2c(-n3nc(Nc4ccc5c(c4)CC4CCC(C5)C4N4CCCC4)nc3N)nc(Cl)nc12 (stereo not drawn) [Compound 15, 1-(2-chloro-7-methylthieno[3,2-d]pyrimidin-4-yl)-N^3-(7-pyrrolidin-1-yl-6,8-ethano-6,7,8,9-tetrahydro-5H-benzo[7]annulene-3-yl)-1H-1,2,4-triazole-3,5-diamine]"
5,< 1000 nM,"Nc1nc(Nc2ccc(N3CCC(N4CCCC4)CC3)c(F)c2)nn1-c1cc(-c2ccccc2)c2c(n1)C1CCN2CC1 [Compound 25, 1-(1,4-ethano-8-phenyl-1,2,3,4-tetrahydro-1,5-naphthyridin-6-yl)-N^3-(3-fluoro-4-(4-(pyrrolidin-1-yl)piperidin-1-yl)phenyl)-1H-1,2,4-triazole-3,5-diamine]"
6,< 1000 nM,"Nc1nc(Nc2ccc(N3CCC(N4CCCC4)CC3)nc2)nn1-c1cc(-c2ccccc2)c2c(n1)C1CCN2CC1 [Compound 29, 1-(1,4-ethano-8-phenyl-1,2,3,4-tetrahydro-1,5-naphthyridin-6-yl)-N^3-(2-(4-(pyrrolidin-1-yl)piperidin-1-yl)pyridine-5-yl)-1H-1,2,4-triazole-3,5-diamine]"
7,< 1000 nM,"Nc1nc(Nc2ccc(N3CCN(CC4CC4)[C@H](C(=O)O)C3)c(F)c2)nn1-c1cc(-c2ccccc2)c2c(n1)C1CCN2CC1 [Compound 66, 1-(1,4-ethano-8-phenyl-1,2,3,4-tetrahydro-1,5-naphthyridin-6-yl)-N^3-(3-fluoro-4-((3S)-3-carboxy-4-cyclopropylmethylpiperazin-1-yl)phenyl)-1H-1,2,4-triazole-3,5-diamine]"
8,< 1000 nM,"Nc1nc(Nc2ccc(N3CCC(N4CCCC4)CC3)c(F)c2)nn1-c1nnc(-c2ccccc2)c2c1C1CCC2C1 (stereo not drawn) [Compound 40, 1-(5,8-methano-1-phenyl-5,6,7,8-tetrahydrophthalazine-4-yl)-N^3-(3-fluoro-4-(4-(pyrrolidin-1-yl)piperidin-1-yl)phenyl)-1H-1,2,4-triazole-3,5-diamine]"
9,< 1000 nM,"Nc1nc(Nc2ccc(N3CCC(N4CCCC4)CC3)c(F)c2)nn1-c1cc(-c2ccccc2)c2c(n1)C1CCC2C1 (stereo not drawn) [Compound 43, 1-(5,8-methano-4-phenyl-5,6,7,8-tetrahydroquinoline-2-yl)-N^3-(3-fluoro-4-(4-(pyrrolidin-1-yl)piperidin-1-yl)phenyl)-1H-1,2,4-triazole-3,5-diamine]"
10,< 1000 nM,"Nc1nc(Nc2ccc(N3CCN(C4CCCCC4)CC3)c(F)c2)nn1-c1cc(-c2ccccc2)c2c(n1)C1CCN2CC1 [Compound 37, 1-(1,4-ethano-8-phenyl-1,2,3,4-tetrahydro-1,5-naphthyridin-6-yl)-N^3-(3-fluoro-4-(4-cyclohexylpiperazin-1-yl)phenyl)-1H-1,2,4-triazole-3,5-diamine]"
11,< 1000 nM,"CCOC(=O)CN1CCN(c2ccc(Nc3nc(N)n(-c4cc(-c5ccccc5)c5c(n4)C4CCN5CC4)n3)cc2F)CC1 [Compound 55, 1-(1,4-ethano-8-phenyl-1,2,3,4-tetrahydro-1,5-naphthyridin-6-yl)-N^3-(3-fluoro-4-(4-ethyloxycarbonylmethylpiperazin-1-yl)phenyl)-1H-1,2,4-triazole-3,5-diamine]"
12,> 20000 nM,"CN1CCC(c2ccc(Nc3nc(N)n(-c4ncc5c(n4)C4CCC5C4)n3)cc2)CC1 (stereo not drawn) [Compound 12, N^3-(4-(1-methylpiperidin-4-yl)phenyl)-1-(5,8-methano-5,6,7,8-tetrahydroquinazolin-2-yl)-1H-1,2,4-triazole-3,5-diamine]"
13,> 20000 nM,"CC1(C)[C@H]2Cc3ccc(-n4nc(Nc5ccc(N6CCN(C7CC8CCC7C8)CC6)c(F)c5)nc4N)nc3[C@@H]1C2 (stereo partly drawn) [Compound 39, 1-(7,7-dimethyl-(6R,8R)6,8-methano-5,6,7,8-tetrahydroquinoline-2-yl)-N^3-(3-fluoro-4-(4-bicyclo[2.2.1]heptan-2-ylpiperazin-1-yl)phenyl)-1H-1,2,4-triazole-3,5-diamine]"
14,< 1000 nM,"Nc1nc(Nc2ccc(N3CCC(N4CCCC4)CC3)c(F)c2)nn1-c1cc(-c2cccnc2)c2c(n1)C1CCN2CC1 [Compound 63, 1-(1,4-ethano-8-pyridin-3-yl-1,2,3,4-tetrahydro-1,5-naphthyridin-6-yl)-N^3-(3-fluoro-4-(4-(pyrrolidin-1-yl)piperidin-1-yl)phenyl)-1H-1,2,4-triazole-3,5-diamine]"
15,< 1000 nM,"Nc1nc(Nc2ccc(N3CCC(N4CCCC4)CC3)c(F)c2)nn1-c1cc(-c2ccc(C(F)(F)F)cc2)c2c(n1)C1CCN2CC1 [Compound 57, 1-(1,4-ethano-8-(4-trifluoromethylphenyl)-1,2,3,4-tetrahydro-1,5-naphthyridin-6-yl)-N^3-(3-fluoro-4-(4-(pyrrolidin-1-yl)piperidin-1-yl)phenyl)-1H-1,2,4-triazole-3,5-diamine]"
16,< 1000 nM,"Nc1nc(Nc2ccc(N3CCC(N4CCCC4)CC3)c(F)c2)nn1-c1ncc2c(n1)C1CCC2C1 (stereo not drawn) [Compound 11, 1-(5,8-methano-5,6,7,8-tetrahydroquinazolin-2-yl)-N^3-(3-fluoro-4-(4-(pyrrolidin-1-yl)piperidin-1-yl)phenyl)-1H-1,2,4-triazole-3,5-diamine]"
17,< 1000 nM,"Nc1nc(Nc2ccc(N3CCN(C4CCCCCC4)CC3)cc2)nn1-c1ncc2c(n1)C1CCC2C1 (stereo not drawn) [Compound 10, N^3-(4-(4-cycloheptylpiperazin-1-yl)phenyl)-1-(5,8-methano-5,6,7,8-tetrahydroquinazolin-2-yl)-1H-1,2,4-triazole-3,5-diamine]"
18,< 1000 nM,"COc1ccc(-c2cc(-n3nc(Nc4ccc(N5CCC(N6CCCC6)CC5)c(F)c4)nc3N)nc3c2N2CCC3CC2)cc1 [Compound 62, 1-(1,4-ethano-8-(4-methoxyphenyl)-1,2,3,4-tetrahydro-1,5-naphthyridin-6-yl)-N^3-(3-fluoro-4-(4-(pyrrolidin-1-yl)piperidin-1-yl)phenyl)-1H-1,2,4-triazole-3,5-diamine]"
19,< 1000 nM,"CN1CCN(c2ccc(Nc3nc(N)n(-c4ccc5c(n4)[C@@H]4C[C@H](C5)C4(C)C)n3)cc2)CC1 [Compound 38, 1-(7,7-dimethyl-(6R,8R)6,8-methano-5,6,7,8-tetrahydroquinoline-2-yl)-N^3-(4-(4-methylpiperazin-1-yl)phenyl)-1H-1,2,4-triazole-3,5-diamine]"
20,< 1000 nM,"Nc1nc(Nc2ccc(N3CCC(N4CCCC4)CC3)c(F)c2)nn1-c1cc(-c2cccs2)c2c(n1)C1CCC2C1 (stereo not drawn) [Compound 53, 1-(5,8-methano-4-thiophen-2-yl-5,6,7,8-tetrahydroquinoline-2-yl)-N^3-(3-fluoro-4-(4-(pyrrolidin-1-yl)piperidin-1-yl)phenyl)-1H-1,2,4-triazole-3,5-diamine]"
21,< 1000 nM,"Nc1nc(Nc2ccc(N3CCC(N4CCC[C@H]4C(=O)O)CC3)c(F)c2)nn1-c1cc(-c2ccccc2)c2c(n1)C1CCN2CC1 [Compound 61, 1-(1,4-ethano-8-phenyl-1,2,3,4-tetrahydro-1,5-naphthyridin-6-yl)-N^3-(3-fluoro-4-(4-((2S)-2-carboxypyrrolidin-1-yl)piperidin-1-yl)phenyl)-1H-1,2,4-triazole-3,5-diamine]"
